Data reported in paper PMC11707430, “Novel antibiotics against Staphylococcus aureus without detectable resistance by targeting proton motive force and FtsH” (MedComm, 2025).
≈ marks a conversion by molar mass, not a printed value.

Tests used:
S. aureus ATCC 43300 [1] = test: Periprosthetic joint infection (PJI) model; assay type: in vivo, ICR mice; details: day 7, alone or in combination, i.p.
S. aureus [2] = test: Peritonitis-sepsis model; assay type: in vivo, ICR mice; details: single use, i.p., 24 h postinfection, vs vehicle
Description: Peritonitis-sepsis model. Six to seven-week-old female ICR mice were included. […] Mice were injected with 500 μL of the suspension in the presence of 5% mucin by i.p.. An hour post-infection, the mice were administered with: 1) EL+ethanol, 2) […]-0546 (30 mg/kg), and 3) STK848198 (30 mg/kg) alone or in combination with ampicillin (AMP, 25 mg/kg)^38 or amikacin (AMK, 25 mg/kg).

S. aureus [3] = test: MIC determination by microbroth dilution; assay type: cell-based, Staphylococcus aureus; details: for antimicrobial activity (in words): structure-activity relationship of C218-0546 analogs (Figure S1)
Description: Minimal inhibitory concentration (MIC) determination. The detection of MIC was performed by the microbroth dilution method with reference to the previously report by Wang et al^2. Briefly, the fresh bacterial suspension was adjusted to a McF standard equivalent of 0.5 (~1.5 × 10^8 CFU/mL) and then 100-fold diluted with MH broth. Fifty microliters of bacterial suspension with equal volume of serially diluted compounds (1-128 µg/mL) were added into a 96-well cell plate (Corning Costar, the United States) and incubated at 37°C for 16-18 h. The bacterial suspension without compounds was used as a negative control. The lowest concentration that inhibited visible bacterial growth was considered as the value of MIC.

S. aureus ATCC 43300 [4] = test: One-step resistance assay (spontaneous resistance frequency); assay type: cell-based; details: 1◊MIC
Description: Resistance inducing assay. Consecutive and one-step resistance experiments were performed to assess the resistance-inducing ability of the compounds against S. aureus. For consecutive resistance assay, the MICs of compounds and ciprofloxacin (CIP) were determined on the first day. […] Subsequently, the equal volume of bacterial suspension was added to the serial concentrations of compounds or CIP into a 96-well plate, the new MICs were recorded every 24h for a total of 15 days. After 15 days of passages, the CIP-induced resistant S. aureus strains were obtained. And the antimicrobial activity of the compounds against the CIP-induced strains were assessed by microdilution assay as described above. For one-step resistance assay, overnight cultured S. aureus was adjusted to a final concentration of approximately OD630=0.5 with sterile saline. One hundred microliters of the bacterial suspension were uniformly spread in pre-prepared MH agar plates containing a specific concentration of compounds. Rifampicin (RFP) was used as a positive control. The viable cells were counted on the plates after incubation at 37°C for 48h. The frequency of spontaneous drug resistance mutation was defined as the ratio of the number of resistant CFU counts to the initial CFU counts^3.

CC1(C)S[C@@H]2[C@H](NC(=O)[C@H](N)c3ccccc3)C(=O)N2[C@H]1C(=O)O [AMP, ampicillin, reference compound]
bacterial loads in the joint and its surrounding tissue (S. aureus ATCC 43300 [1]): reduce the bacterial loads
bacterial loads in organs (S. aureus [2]): no statistical difference

Cc1ccc(CNC(=O)c2c[nH]n3c(=O)c(Cc4ccc(Cl)cc4)c(C)nc23)cc1 [C218-0468]
antimicrobial activity (in words) (S. aureus [3]): did not optimize the MIC values

CCCCCCCCCC(=O)N[C@@H](Cc1c[nH]c2ccccc12)C(=O)N[C@H](CC(N)=O)C(=O)N[C@@H](CC(=O)O)C(=O)N[C@@H]1C(=O)NCC(=O)N[C@@H](CCCN)C(=O)N[C@@H](CC(=O)O)C(=O)N[C@H](C)C(=O)N[C@@H](CC(=O)O)C(=O)NCC(=O)N[C@H](CO)C(=O)N[C@@H]([C@H](C)CC(=O)O)C(=O)N[C@@H](CC(=O)c2ccccc2N)C(=O)O[C@@H]1C [DAP, daptomycin]
MIC (S. aureus [3]; ATCC 25923): 1 mg/L (≈ 0.617 µM)
MIC (S. aureus [3]; ATCC 43300): 1 mg/L (≈ 0.617 µM)
MIC (S. aureus [3]; LZB1): 1 mg/L (≈ 0.617 µM)
MIC (S. aureus [3]; Newman): 2 mg/L (≈ 1.23 µM)
MIC (S. aureus [3]; R0645): 2 mg/L (≈ 1.23 µM)
MIC (S. aureus [3]; R82174): 2 mg/L (≈ 1.23 µM)
MIC (S. aureus [3]; SA1901): 1 mg/L (≈ 0.617 µM)
MIC (S. aureus [3]; SA1902): 1 mg/L (≈ 0.617 µM)
MIC (S. aureus [3]; SA1909): 1 mg/L (≈ 0.617 µM)
MIC (S. aureus [3]; SA1910): 1 mg/L (≈ 0.617 µM)
MIC (S. aureus [3]; SA1911): 2 mg/L (≈ 1.23 µM)
MIC (S. aureus [3]; SA1912): 1 mg/L (≈ 0.617 µM)
MIC (S. aureus [3]; SA1913): 1 mg/L (≈ 0.617 µM)
MIC (S. aureus [3]; SA1914): 2 mg/L (≈ 1.23 µM)
MIC (S. aureus [3]; SA1915): 1 mg/L (≈ 0.617 µM)
MIC (S. aureus [3]; SAJ1 (VISA)): 32 mg/L (≈ 19.7 µM)
MIC (S. aureus [3]; USA300): 1 mg/L (≈ 0.617 µM)

CO[C@H]1/C=C/O[C@@]2(C)Oc3c(C)c(O)c4c(O)c(c(/C=N/N5CCN(C)CC5)c(O)c4c3C2=O)NC(=O)/C(C)=C\C=C\[C@H](C)[C@H](O)[C@@H](C)[C@@H](O)[C@@H](C)[C@H](OC(C)=O)[C@@H]1C [RFP, Rifampicin]
Spontaneous resistance frequency (mean±SD) (S. aureus ATCC 43300 [4]): (2.83±2.9) ×10^-7

Cc1nc2c(C#N)c[nH]n2c(=O)c1Cc1ccccc1 [STK584829]
antimicrobial activity (in words) (S. aureus [3]): vanished antimicrobial activity

Cc1nc2oc3ccccc3c(=O)c2c2nc3ccccc3n12 [STK585953]
antimicrobial activity (in words) (S. aureus [3]): reduce the antimicrobial ability

CN[C@H](CC(C)C)C(=O)N[C@H]1C(=O)N[C@@H](CC(N)=O)C(=O)N[C@H]2C(=O)N[C@H]3C(=O)N[C@H](C(=O)N[C@H](C(=O)O)c4cc(O)cc(O)c4-c4cc3ccc4O)[C@H](O)c3ccc(c(Cl)c3)Oc3cc2cc(c3O[C@@H]2O[C@H](CO)[C@@H](O)[C@H](O)[C@H]2O[C@H]2C[C@](C)(N)[C@H](O)[C@H](C)O2)Oc2ccc(cc2Cl)[C@H]1O [VAN, vancomycin]
MIC (S. aureus [3]; ATCC 25923): 1 mg/L (≈ 0.69 µM)
MIC (S. aureus [3]; ATCC 43300): 1 mg/L (≈ 0.69 µM)
MIC (S. aureus [3]; LZB1): 1 mg/L (≈ 0.69 µM)
MIC (S. aureus [3]; Newman): 2 mg/L (≈ 1.38 µM)
MIC (S. aureus [3]; R0645): 1 mg/L (≈ 0.69 µM)
MIC (S. aureus [3]; R82174): 1 mg/L (≈ 0.69 µM)
MIC (S. aureus [3]; SA1901): 1 mg/L (≈ 0.69 µM)
MIC (S. aureus [3]; SA1902): 0.5 mg/L (≈ 0.345 µM)
MIC (S. aureus [3]; SA1909): 1 mg/L (≈ 0.69 µM)
MIC (S. aureus [3]; SA1910): 1 mg/L (≈ 0.69 µM)
MIC (S. aureus [3]; SA1911): 1 mg/L (≈ 0.69 µM)
MIC (S. aureus [3]; SA1912): 1 mg/L (≈ 0.69 µM)
MIC (S. aureus [3]; SA1913): 1 mg/L (≈ 0.69 µM)
MIC (S. aureus [3]; SA1914): 1 mg/L (≈ 0.69 µM)
MIC (S. aureus [3]; SA1915): 1 mg/L (≈ 0.69 µM)
MIC (S. aureus [3]; SAJ1 (VISA)): 4 mg/L (≈ 2.76 µM)
MIC (S. aureus [3]; USA300): 1 mg/L (≈ 0.69 µM)
